# Results reported in PubChem BioAssay AID1259407 (Chemical Carcinogenesis Research Information System (CCRIS), 2018).
# Activity calls are given as the source filed them. The rule behind the calls is not given here.
# Tested on: CCRIS mutagenicity, Ames/micronucleus/aberration tests
# Test: CCRIS mutagenicity studies
# [1] = Test System: AMES SALMONELLA TYPHIMURIUM, Strain/Indicator: TA98, Metabolic Activation: NONE, Method: PREINCUBATION
# [2] = Test System: AMES SALMONELLA TYPHIMURIUM, Strain/Indicator: TA100, Metabolic Activation: NONE, Method: PREINCUBATION
# [3] = Test System: AMES SALMONELLA TYPHIMURIUM, Strain/Indicator: TA98, Metabolic Activation: NONE, Method: STANDARD PLATE
structure (smiles),measurement,setting,value
O.O.O.O.O.O.[Cl-].[Cl-].[Ni+2],mutagenic call,"End Point: In vitro chromosomal aberrations, Test System: Chinese hamster V79 lung cells, Metabolic Activation: None",inactive; negative
same,mutagenic call,[1],inactive; negative
same,mutagenic call,"Test System: AMES SALMONELLA TYPHIMURIUM, Strain/Indicator: TA98, Metabolic Activation: RAT LIVER S-9, PHENOBARBITAL AND BETA-NAPHTHOFLAVONE, Method: PREINCUBATION",inactive; negative
same,mutagenic call,[2],inactive; negative
same,mutagenic call,"Test System: AMES SALMONELLA TYPHIMURIUM, Strain/Indicator: TA100, Metabolic Activation: RAT LIVER S-9, PHENOBARBITAL AND BETA-NAPHTHOFLAVONE, Method: PREINCUBATION",inactive; negative
same,mutagenic call,"Test System: AMES SALMONELLA TYPHIMURIUM, Strain/Indicator: TA1535, Metabolic Activation: NONE, Method: PREINCUBATION",inactive; negative
same,mutagenic call,"Test System: AMES SALMONELLA TYPHIMURIUM, Strain/Indicator: TA1535, Metabolic Activation: RAT LIVER S-9, PHENOBARBITAL AND BETA-NAPHTHOFLAVONE, Method: PREINCUBATION",inactive; negative
same,mutagenic call,"Test System: AMES SALMONELLA TYPHIMURIUM, Strain/Indicator: TA1537, Metabolic Activation: NONE, Method: PREINCUBATION",inactive; negative
same,mutagenic call,"Test System: AMES SALMONELLA TYPHIMURIUM, Strain/Indicator: TA1537, Metabolic Activation: RAT LIVER S-9, PHENOBARBITAL AND BETA-NAPHTHOFLAVONE, Method: PREINCUBATION",inactive; negative
same,mutagenic call,"Test System: AMES SALMONELLA TYPHIMURIUM, Strain/Indicator: TA1538, Metabolic Activation: NONE, Method: PREINCUBATION",inactive; negative
same,mutagenic call,"Test System: AMES SALMONELLA TYPHIMURIUM, Strain/Indicator: TA1538, Metabolic Activation: RAT LIVER S-9, PHENOBARBITAL AND BETA-NAPHTHOFLAVONE, Method: PREINCUBATION",inactive; negative
same,mutagenic call,"Test System: CHINESE HAMSTER V-79, Strain/Indicator: V-79/(HGPRT), Metabolic Activation: NONE",active; positive
same,mutagenic call,"Test System: E.COLI, Strain/Indicator: WP2UVRA, Metabolic Activation: NONE, Method: PREINCUBATION",inactive; negative
same,mutagenic call,"Test System: E.COLI, Strain/Indicator: WP2UVRA, Metabolic Activation: RAT LIVER S-9, PHENOBARBITAL AND BETA-NAPHTHOFLAVONE, Method: PREINCUBATION",inactive; negative
CC(C)(C)CNC(=O)C=Cc1ccc([N+](=O)[O-])o1,mutagenic call,[1],active; positive
Cn1cccc1,mutagenic call,[1],inactive; negative
same,mutagenic call,"Test System: AMES SALMONELLA TYPHIMURIUM, Strain/Indicator: TA98, Metabolic Activation: RAT, LIVER, S-9, AROCLOR 1254, Method: PREINCUBATION",inactive; negative
same,mutagenic call,[2],inactive; negative
same,mutagenic call,"Test System: AMES SALMONELLA TYPHIMURIUM, Strain/Indicator: TA100, Metabolic Activation: RAT, LIVER, S-9, AROCLOR 1254, Method: PREINCUBATION",inactive; negative
same,mutagenic call,"Test System: AMES SALMONELLA TYPHIMURIUM, Strain/Indicator: TA102, Metabolic Activation: NONE, Method: PREINCUBATION",inactive; negative
same,mutagenic call,"Test System: AMES SALMONELLA TYPHIMURIUM, Strain/Indicator: TA102, Metabolic Activation: RAT, LIVER, S-9, AROCLOR 1254, Method: PREINCUBATION",inactive; negative
CCCCCN(N=O)C(N)=O,mutagenic call,"Test System: E. COLI B, Strain/Indicator: H/R30R, Metabolic Activation: NONE",active; positive
same,mutagenic call,"Test System: E. COLI B, Strain/Indicator: HS30R, Metabolic Activation: NONE",active; positive
COc1cccc2c1cc1c3c(cc4c(c32)OCO4)C(=O)N1[C@H]1O[C@H](CO)[C@@H](O)[C@H](O)[C@H]1O,mutagenic call,"Test System: AMES SALMONELLA TYPHIMURIUM, Strain/Indicator: TM677/8-AZAGUANINE, Metabolic Activation: NONE, Method: SUSPENSION/PLATE",inactive; negative
COC(=O)/C(C#N)=C/c1ccc(Br)o1,mutagenic call,[1],inactive; negative
Nc1ncnc2c1ncn2-c1cccc([N+](=O)[O-])c1,mutagenic call,"Test System: AMES SALMONELLA TYPHIMURIUM, Strain/Indicator: TA98(1,8-DNP), Metabolic Activation: NONE, Method: PREINCUBATION",active; positive
same,mutagenic call,"Test System: AMES SALMONELLA TYPHIMURIUM, Strain/Indicator: TA98(1,8-DNP), Metabolic Activation: RAT, LIVER, S-9, PCB, Method: PREINCUBATION",active; positive
same,mutagenic call,"Test System: AMES SALMONELLA TYPHIMURIUM, Strain/Indicator: TA98(NR), Metabolic Activation: NONE, Method: PREINCUBATION",inactive; negative
same,mutagenic call,"Test System: AMES SALMONELLA TYPHIMURIUM, Strain/Indicator: TA98(NR), Metabolic Activation: RAT, LIVER, S-9, PCB, Method: PREINCUBATION",inactive; negative
same,mutagenic call,[1],active; positive
same,mutagenic call,"Test System: AMES SALMONELLA TYPHIMURIUM, Strain/Indicator: TA98, Metabolic Activation: RAT, LIVER, S-9, PCB, Method: PREINCUBATION",active; positive
same,mutagenic call,"Test System: AMES SALMONELLA TYPHIMURIUM, Strain/Indicator: TA100(1,8-DNP), Metabolic Activation: NONE, Method: PREINCUBATION",active; positive
same,mutagenic call,"Test System: AMES SALMONELLA TYPHIMURIUM, Strain/Indicator: TA100(1,8-DNP), Metabolic Activation: RAT, LIVER, S-9, PCB, Method: PREINCUBATION",active; positive
same,mutagenic call,"Test System: AMES SALMONELLA TYPHIMURIUM, Strain/Indicator: TA100(NR), Metabolic Activation: NONE, Method: PREINCUBATION",inactive; negative
same,mutagenic call,"Test System: AMES SALMONELLA TYPHIMURIUM, Strain/Indicator: TA100(NR), Metabolic Activation: RAT, LIVER, S-9, PCB, Method: PREINCUBATION",inactive; negative
same,mutagenic call,[2],active; positive
same,mutagenic call,"Test System: AMES SALMONELLA TYPHIMURIUM, Strain/Indicator: TA100, Metabolic Activation: RAT, LIVER, S-9, PCB, Method: PREINCUBATION",active; positive
same,mutagenic call,"Test System: AMES SALMONELLA TYPHIMURIUM, Strain/Indicator: YG1020, Metabolic Activation: NONE, Method: PREINCUBATION",active; positive
same,mutagenic call,"Test System: AMES SALMONELLA TYPHIMURIUM, Strain/Indicator: YG1020, Metabolic Activation: RAT, LIVER, S-9, PCB, Method: PREINCUBATION",active; positive
same,mutagenic call,"Test System: AMES SALMONELLA TYPHIMURIUM, Strain/Indicator: YG1021, Metabolic Activation: NONE, Method: PREINCUBATION",active; positive
same,mutagenic call,"Test System: AMES SALMONELLA TYPHIMURIUM, Strain/Indicator: YG1021, Metabolic Activation: RAT, LIVER, S-9, PCB, Method: PREINCUBATION",active; positive
same,mutagenic call,"Test System: AMES SALMONELLA TYPHIMURIUM, Strain/Indicator: YG1024, Metabolic Activation: NONE, Method: PREINCUBATION",active; positive
same,mutagenic call,"Test System: AMES SALMONELLA TYPHIMURIUM, Strain/Indicator: YG1024, Metabolic Activation: RAT, LIVER, S-9, PCB, Method: PREINCUBATION",active; positive
same,mutagenic call,"Test System: AMES SALMONELLA TYPHIMURIUM, Strain/Indicator: YG1025, Metabolic Activation: NONE, Method: PREINCUBATION",active; positive
same,mutagenic call,"Test System: AMES SALMONELLA TYPHIMURIUM, Strain/Indicator: YG1025, Metabolic Activation: RAT, LIVER, S-9, PCB, Method: PREINCUBATION",active; positive
same,mutagenic call,"Test System: AMES SALMONELLA TYPHIMURIUM, Strain/Indicator: YG1026, Metabolic Activation: NONE, Method: PREINCUBATION",active; positive
same,mutagenic call,"Test System: AMES SALMONELLA TYPHIMURIUM, Strain/Indicator: YG1026, Metabolic Activation: RAT, LIVER, S-9, PCB, Method: PREINCUBATION",active; positive
same,mutagenic call,"Test System: AMES SALMONELLA TYPHIMURIUM, Strain/Indicator: YG1029, Metabolic Activation: NONE, Method: PREINCUBATION",active; positive
same,mutagenic call,"Test System: AMES SALMONELLA TYPHIMURIUM, Strain/Indicator: YG1029, Metabolic Activation: RAT, LIVER, S-9, PCB, Method: PREINCUBATION",active; positive
O=C(N=c1sn(C(=O)c2ccc([N+](=O)[O-])cc2)c2ccc([N+](=O)[O-])cc12)c1ccc([N+](=O)[O-])cc1,mutagenic call,"Test System: AMES SALMONELLA TYPHIMURIUM, Strain/Indicator: TA100, Metabolic Activation: S-9, Method: STANDARD PLATE",active; positive
Cc1c2ccccc2c(C)c2c1c1c(c3ccccc32)N1,mutagenic call,[1],active; positive
ClCc1cccc(CCl)c1,mutagenic call,[3],inactive; negative
CCc1cccc(CC)c1NC(=O)CO,mutagenic call,[1],inactive; negative
same,mutagenic call,"Test System: AMES SALMONELLA TYPHIMURIUM, Strain/Indicator: TA98, Metabolic Activation: RAT, LIVER, MICROSOMES, PHENOBARBITAL, Method: PREINCUBATION",inactive; negative
same,mutagenic call,[2],inactive; negative
same,mutagenic call,"Test System: AMES SALMONELLA TYPHIMURIUM, Strain/Indicator: TA100, Metabolic Activation: RAT, LIVER, MICROSOMES, PHENOBARBITAL, Method: PREINCUBATION",active; positive
Cn1cc(C[C@@]2(O)C(=O)O[C@@H]3[C@@H](O)CO[C@@]32O)c2ccccc21,mutagenic call,[3],active; positive
same,mutagenic call,"Test System: AMES SALMONELLA TYPHIMURIUM, Strain/Indicator: TA98, Metabolic Activation: RAT, LIVER, S-9, PCB, Method: STANDARD PLATE",active; positive
same,mutagenic call,"Test System: AMES SALMONELLA TYPHIMURIUM, Strain/Indicator: TA100, Metabolic Activation: NONE, Method: STANDARD PLATE",active; positive
same,mutagenic call,"Test System: AMES SALMONELLA TYPHIMURIUM, Strain/Indicator: TA100, Metabolic Activation: RAT, LIVER, S-9, PCB, Method: STANDARD PLATE",active; positive
